This note sets out measurements from PubChem BioAssay (NCI).

Molecules are shown by their SMILES.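 Dose response: 5 concentrations. Exposure: 48 h. Format: 96-well plates. Endpoint: linear interpolation; highest concentration if not reached. At the TGI there is no net growth.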

Holding throughout (test): NCI-60 cell line screen, 48 h
The test system of test [1] is KM12 colon.
Test [2] deals with HT29 colon.
The test system of test [3] is SK-MEL-2 melanoma.
The subject of test [4] is EKVX NSCLC.
Test [5] has as its system MCF7 breast.
For test [6], the system named is HCT-116 colon.
The test system of test [7] is HL-60(TB) leukemia.
Test [8] deals with OVCAR-5 ovarian.
Test [9] concerns HCC-2998 colon.
Test [10] deals with SNB-19 CNS.
The test system of test [11] is A549 NSCLC.
Test [12] has as its system IGROV1 ovarian.
Test [13] concerns OVCAR-8 ovarian.
Test [14] has as its system OVCAR-3 ovarian.
Test [15] relates to MDA-N.
Test [16] concerns UO-31 renal.
The subject of test [17] is RPMI-8226 leukemia.
Test [18] relates to SR leukemia.
Test [19] concerns SF-539 CNS.

As for `O=C1Nc2ccccc2/C1=C\c1c(Cl)nc2n1CCS2`, the TGI in test [1] was above 100 µM; in test [2] it was above 100 µM; in [3], 32.5 µM; in test [4], above 100 µM; in [5], 60.6 µM; in test [6] it was 68 µM. Moreover, the TGI in [7] is 48.8 µM; in [8] it was above 100 µM; in test [9], 35.3 µM; in test [10] it was above 100 µM; in [11] it was above 100 µM; in [12], above 100 µM. The TGI in [13] is above 100 µM; in test [14], 68.7 µM; in test [15], 43.6 µM; in test [16], above 100 µM; in test [17], above 100 µM.

Consider `N=C(N)SCc1ccc(N=C=S)cc1`, for which the TGI was above 100 µM in test [18]; 27.6 µM in [1]; 40.3 µM in [2]; 23 µM in test [3]; 35.5 µM in test [4]; 27.2 µM in [6]. The TGI in test [7] came out at 35.9 µM; in [8], 27.6 µM; in test [9] it was 30.4 µM; in test [10], 26.7 µM; in test [19], 27.3 µM; in [11] it was 30.5 µM. Also, the TGI in [12] was 26.7 µM; in test [13] it was 31.6 µM; in test [15], 26.6 µM; in test [16], 25 µM; in test [17], above 100 µM.

In the case of `COc1ccc(/C=C2\CN(C)CC3C2=NN(c2ccccc2)C3c2ccc(OC)cc2)cc1` (centres undefined), the TGI in [1], in [2], in [4], in [5], in [6] and in test [8] was above 100 µM throughout. The TGI in test [9], in [10], in test [11], in test [12], in [13] and in test [14] was above 100 µM throughout. Moreover, the TGI in test [15], in test [16] and in [17] was above 100 µM in each case.

Take `CC(C)(SCc1ccccc1)C(N)C(=O)O` (centres undefined): the TGI in [18], in [1], in test [2], in test [3], in test [4] and in test [6] was above 100 µM in each case. Besides, the TGI in test [7], in test [8], in test [10], in test [11], in test [12] and in [13] was above 100 µM each time. For the same molecule, the TGI in test [14], in test [15], in [16] and in test [17] was above 100 µM throughout.

`CC(=O)N(C(C)=O)n1nc2c(n1)C(=O)c1ccccc1C2=O`: the TGI in [1], in test [2], in [3], in test [4], in [5] and in test [6] was above 100 µM in each case. The TGI in test [7], in test [8], in test [10], in [19], in [11] and in test [12] was above 100 µM throughout. Moreover, the TGI in test [13], in test [14], in test [15], in [16] and in [17] was above 100 µM in each case.

In the case of `Cc1[nH]c(=O)nc(N(CCO)/N=C/c2ccc(Cl)cc2)c1C(=O)Nc1ccc(Cl)cc1`, the TGI in test [1], in [2], in [3], in [4], in [5] and in [6] was above 100 µM throughout. Moreover, the TGI in test [7], in test [8], in test [9], in test [10], in [19] and in test [11] was above 100 µM throughout. Besides, the TGI in test [12], in [13], in [14], in test [15] and in [16] was above 100 µM throughout.

As for `Cc1ccc(S(=O)(=O)N2CCCSCCN(S(=O)(=O)c3ccc(C)cc3)CCCSCC2)cc1`, the TGI in [1], in test [2], in [3], in [4], in [5] and in test [6] was above 100 µM each time. In addition, the TGI in test [7], in [8], in test [9], in test [10], in test [19] and in test [11] was above 100 µM each time. Further, the TGI in [12], in test [13], in [14], in [15], in test [16] and in test [17] was above 100 µM each time.

As for `O=C1C=C2CC[C@H]3[C@@H]4CC[C@H](Oc5c6ccccc6nc6ccccc56)[C@H]4CC[C@@H]3[C@H]2CC1`, the TGI in test [1] was above 100 µM; in test [2], above 100 µM; in [3] it was above 100 µM; in [4], above 100 µM; in test [6] it was above 100 µM; in test [7] it was 47.4 µM. Also, the TGI in test [8], in test [10], in [19], in test [11], in test [12] and in test [13] was above 100 µM throughout. Besides, the results for the TGI in test [14] and in [15] were above 100 µM and 75.2 µM, respectively.

With `Cc1cc(=O)c2ccccc2n1CCCCCCCCCCn1c(C)cc(=O)c2ccccc21`, the TGI in test [18] came out at 34 µM; in test [1] it was 29.4 µM; in test [2], 29.9 µM; in test [4], 33.9 µM; in test [6] it was 27.8 µM; in [7], 15.1 µM. The TGI in test [8] was above 100 µM; in test [9], 24.1 µM; in [10] it was above 100 µM; in [19], 44.3 µM; in test [11] it was 56.2 µM; in test [12], 43.8 µM. In addition, the TGI in test [13] was 46.7 µM; in [14] it was above 100 µM; in test [15], 43.1 µM; in [16], 25.6 µM.

As to `Cc1nc2ccccc2n1Cc1nnc2n1N=C(c1ccccc1)CS2`, the TGI in test [1] is above 100 µM; in test [2], above 100 µM; in [3], 40.7 µM; in test [4], above 100 µM; in test [5], above 100 µM; in test [6], above 100 µM. The TGI was 95.3 µM in test [7]; above 100 µM in test [8]; 68.1 µM in test [9]; above 100 µM in [10]; above 100 µM in test [19]; above 100 µM in [11]. Further, the TGI in [12] was 20.1 µM; in test [14], above 100 µM; in test [15], above 100 µM; in test [16], above 100 µM; in test [17], above 100 µM.

Turning to `CCOC(=O)C1=C(C)NC(C)=C(C(=O)OCC)C1c1ccc(C)cc1`, the TGI in [1] is above 100 µM; in test [2], above 100 µM; in test [3], 98.4 µM; in test [4], above 100 µM; in test [5], 47.3 µM; in test [6] it was above 100 µM. Moreover, the TGI was above 100 µM in [8]; above 100 µM in test [9]; above 100 µM in test [10]; 91.4 µM in test [19]; above 100 µM in test [11]; above 100 µM in test [12]. Besides, the TGI was above 100 µM in test [13]; 87.7 µM in [14]; above 100 µM in [15]; above 100 µM in [16]; 85.8 µM in test [17].

For the molecule `NC(=O)C1N=NSC1NC(=O)c1ccc([N+](=O)[O-])cc1` (centres undefined), the TGI in test [1] is above 100 µM; in [2] it was above 100 µM; in [3] it was 65 µM; in test [4], above 100 µM; in test [5], above 100 µM; in test [6] it was above 100 µM. Further, the TGI in test [8], in test [9], in test [10], in [11], in [12] and in test [13] was above 100 µM each time. For the same molecule, the TGI in test [14], in test [15], in [16] and in test [17] was above 100 µM in each case.

Regarding `CN(C)/C=C/c1c2c(nc3ccccc13)C(=O)c1ccccc1C2=O`, the TGI in test [18] came out at 3.09 µM; in test [1], 3.62 µM; in [2], 4.85 µM; in test [3], 6.27 µM; in test [4], 5.47 µM; in test [6] it was 3.26 µM. In addition, the TGI in [8] was determined as 8.45 µM; in test [9] it was 5.17 µM; in [10] it was 4.88 µM; in test [19], 5.4 µM; in test [11] it was 8.72 µM; in [12], 4.71 µM. Besides, the TGI in test [13] was determined as 7.71 µM; in test [14], 0.622 µM; in test [15], 0.957 µM; in test [16], 7.2 µM; in test [17], 3.49 µM.
